Test results published in patent US20240217981A1, “CRYSTALLINE COMPOUND OF MUSCARINIC ACETYLCHOLINE M1 RECEPTOR ANTAGONISTS” (Pipeline Therapeutics, Inc., priority 2021, published 2024).
Converted amounts (≈) assume the structure as drawn. Read-outs that look alike come from different tables or passages of the source.

Tests used:
[1] = target: T1, human M1 receptor (Homo sapiens, UniProt P11229); assay: In vitro functional assay of muscarinic acetylcholine receptor activity (aequorin calcium flux, reversal of acetylcholine EC50 response); assay type: cell-based
T1 sequence (P11229 1-460): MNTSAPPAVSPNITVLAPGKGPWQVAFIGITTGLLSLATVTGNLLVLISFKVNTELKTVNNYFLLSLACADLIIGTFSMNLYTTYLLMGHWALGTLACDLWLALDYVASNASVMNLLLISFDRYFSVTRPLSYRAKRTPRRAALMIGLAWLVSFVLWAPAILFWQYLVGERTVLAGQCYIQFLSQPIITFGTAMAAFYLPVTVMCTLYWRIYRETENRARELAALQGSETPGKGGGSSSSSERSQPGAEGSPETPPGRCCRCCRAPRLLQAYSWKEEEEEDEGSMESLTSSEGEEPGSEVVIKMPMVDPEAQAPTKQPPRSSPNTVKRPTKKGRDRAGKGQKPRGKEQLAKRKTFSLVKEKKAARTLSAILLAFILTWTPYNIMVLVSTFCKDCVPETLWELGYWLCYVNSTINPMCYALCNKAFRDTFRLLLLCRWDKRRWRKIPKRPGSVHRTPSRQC
Protocol: CHO-K1 cells stably expressing human M1 receptor with aequorin (Perkin Elmer) were grown in F12 media (Gibco) containing 10% FBS (ATCC), 0.4 mg/mL geneticin (Sigma-Aldrich) and 0.25 mg/mL Zeocin (Invitrogen). Cells were grown as per the manufacturer's protocol. For compound testing, cells were grown to confluency and detached gently with Accutase (Sigma-Aldrich) followed by centrifugation for 5 min at 150×g. Cells were then re-suspended in assay buffer (i.e. DMEM/F-12 HEPES without phenol red (Invitrogen) with 0.1% BSA (Sigma-Aldrich)) at a density of 5×10^6 cells/ml. Under sterile conditions, 5 μM coelenterazine (Invitrogen) was added to the cells, mixed, then incubated at room temperature protected from light, with gentle agitation, for 4 h.
Primary compound plates were prepared in 100% DMSO in opaque 96-well plates (VWR) and serially diluted in half log increments. Secondary compound plates were prepared at 3× concentration in assay buffer. […]
The compound and cells were incubated at room temperature for 30 min in the dark. Acetylcholine at the EC50 concentration was added and calcium flux measured using a FlexStation 3 (Molecular Devices). Sigmoidal dose-response curves were generated by measuring […] over 40 sec and calculating the area under the curve. […]

[2] = target: T2, human M2 receptor (Homo sapiens, UniProt P08172); assay: as above; assay type: cell-based; settings: CHO-K1 cells expressing human M2 receptor with aequorin; acetylcholine at EC50
T2 sequence (P08172 1-466): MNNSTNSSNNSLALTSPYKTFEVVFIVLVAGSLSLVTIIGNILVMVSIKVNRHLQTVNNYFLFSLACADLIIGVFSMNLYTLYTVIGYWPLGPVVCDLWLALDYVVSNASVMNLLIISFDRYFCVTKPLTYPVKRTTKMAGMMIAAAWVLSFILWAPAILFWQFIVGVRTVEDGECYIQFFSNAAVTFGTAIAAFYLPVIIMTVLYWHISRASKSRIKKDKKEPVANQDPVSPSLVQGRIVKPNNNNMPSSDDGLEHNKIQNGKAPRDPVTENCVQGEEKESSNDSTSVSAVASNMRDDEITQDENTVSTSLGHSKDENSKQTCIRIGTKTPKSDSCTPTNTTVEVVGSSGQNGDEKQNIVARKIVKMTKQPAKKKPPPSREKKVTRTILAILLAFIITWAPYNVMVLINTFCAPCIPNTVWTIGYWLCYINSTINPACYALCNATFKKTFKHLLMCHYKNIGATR
Protocol: (§1) Primary compound plates were prepared in 100% DMSO in opaque 96-well plates (VWR) and serially diluted in half log increments. Secondary compound plates were prepared at 3× concentration in assay buffer. The compound (6-(3-(4,4-difluoro-4-(2-methoxypyridin-4-yl)butanoyl)-3,8-diazabicyclo[3.2.1]octan-8-yl)nicotinonitrile) was added to white, clear bottom tissue culture treated 96-well plates (Fisher Scientific). Coelenterazine-loaded cells were then added at 5×10^5 cells/well.
(§2) The compound and cells were incubated at room temperature for 30 min in the dark. Acetylcholine at the EC50 concentration was added and calcium flux measured using a FlexStation 3 (Molecular Devices). Sigmoidal dose-response curves were generated by measuring […] over 40 sec and calculating the area under the curve. Dose response curves and IC50 values were generated using Prism (GraphPad). The compound was tested at a final concentration range of […] in 0.10% DMSO.
(§3) CHO-K1 cells stably expressing human M2, M3 and M4 receptors, respectively, with aequorin (Perkin Elmer) were used to assess a test compound's ability to dose-dependently reverse the EC50 acetylcholine response. The IC50 of the compound was calculated from the dose response curve.

[3] = target: human M3 receptor (Homo sapiens, UniProt P20309); assay: as above; assay type: cell-based
Sequence of human M3 receptor (P20309 whole entry): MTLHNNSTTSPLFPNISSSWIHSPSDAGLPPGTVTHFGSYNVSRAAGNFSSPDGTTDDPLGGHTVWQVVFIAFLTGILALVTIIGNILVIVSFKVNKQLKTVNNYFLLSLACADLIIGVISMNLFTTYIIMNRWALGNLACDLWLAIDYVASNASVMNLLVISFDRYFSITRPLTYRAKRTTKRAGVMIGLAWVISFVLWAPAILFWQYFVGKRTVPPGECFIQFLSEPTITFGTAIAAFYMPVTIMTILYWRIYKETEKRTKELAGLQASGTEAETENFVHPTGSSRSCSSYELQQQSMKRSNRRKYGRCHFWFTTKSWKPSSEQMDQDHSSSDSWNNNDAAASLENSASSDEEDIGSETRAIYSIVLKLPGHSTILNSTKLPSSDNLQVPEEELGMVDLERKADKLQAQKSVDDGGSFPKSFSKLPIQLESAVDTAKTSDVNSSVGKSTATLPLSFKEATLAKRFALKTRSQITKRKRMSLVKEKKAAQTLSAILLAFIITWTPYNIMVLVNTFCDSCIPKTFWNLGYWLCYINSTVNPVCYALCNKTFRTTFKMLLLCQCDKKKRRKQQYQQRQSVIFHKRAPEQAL
Protocol: as §1, §2, §3

[4] = target: T3, human M4 receptor (Homo sapiens, UniProt P08173); assay: as above; assay type: cell-based
T3 sequence (P08173 1-479): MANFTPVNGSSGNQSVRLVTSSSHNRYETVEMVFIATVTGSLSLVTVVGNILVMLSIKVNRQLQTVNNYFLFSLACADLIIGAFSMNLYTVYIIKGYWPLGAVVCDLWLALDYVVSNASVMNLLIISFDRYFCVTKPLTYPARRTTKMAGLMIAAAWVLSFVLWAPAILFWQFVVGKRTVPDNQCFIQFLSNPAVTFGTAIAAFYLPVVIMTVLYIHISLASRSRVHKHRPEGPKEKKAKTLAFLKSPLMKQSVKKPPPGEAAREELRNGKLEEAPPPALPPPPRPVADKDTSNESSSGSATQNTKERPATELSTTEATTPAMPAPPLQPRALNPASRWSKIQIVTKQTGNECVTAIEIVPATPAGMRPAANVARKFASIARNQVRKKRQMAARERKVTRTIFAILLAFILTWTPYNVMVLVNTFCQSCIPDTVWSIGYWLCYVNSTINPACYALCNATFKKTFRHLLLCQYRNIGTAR
Protocol: as §1, §2, §3

[5] = Kinetic solubility evaluation; assay type: physicochemical; settings: for solubility / solubility at 1 h / solubility at 4 h / solubility at 24 h: thermodynamic from solid; for FC (Form change): residual solid by XRPD; for solubility at 1 h / solubility at 4 h / solubility at 24 h: read-out: S (Solubility of freebase)
Protocol: In these experiments, about 20 mg of Freebase Type A was suspended in 4 mL of FaSSIF, FeSSIF, SGF and H2O, respectively. After rolling at 37° C. for 1 hr, 4 hrs and 24 hrs, the suspension was centrifuged and filtered through a 0.45 μm PTFE membrane. The residual solids were tested by XRPD and the supernatant was tested by HPLC and pH meter. Detailed procedure can be found in Table 15.

[6] = Physicochemical stability evaluation; settings: for Form change: XRPD
Protocol: In these experiments, about 10 mg of Freebase Type A was stored at 25° C./60% RH, 40° C./75% RH for one week and 60° C./sealed for 24 hrs. After storage, the solids were tested by XRPD and HPLC.

[7] = Hygroscopicity evaluation by DVS test; assay type: physicochemical
Protocol: Hygroscopicity of Freebase Type A was evaluated by DVS test. […] For the minus weight change observed in the desorption curve, it might be related to sample loss or instrument fluctuation.

[8] = 25° C./60% RH, 40° C./75% RH for one week and 60° C./sealed for 24 hrs

COc1cc(C(F)(F)CCC(=O)N2CC3CCC(C2)N3c2ccc(C#N)cn2)ccn1 [Compound, 6-(3-(4,4-difluoro-4-(2-methoxypyridin-4-yl)butanoyl)-3,8-diazabicyclo[3.2.1]octan-8-yl)nicotinonitrile]
IC50 [1]: < 10 nM | IC50 [2]: 1000 to 10000 nM | IC50 [3]: 100 to 1000 nM | IC50 [4]: 100 to 1000 nM | solubility rank order of media, from high to low ([5]; FaSSIF, FeSSIF, SGF and H2O, 37° C.): SGF>FeSSIF>FaSSIF>H2O | form change after rolling in tested media ([5]; XRPD, tested media, 1, 4, and 24 hrs): no form change was observed | solubility ([5]; pH 1.77, simulated gastric fluid, SGF, 37° C., over 1 hr, 4 hrs and 24 hrs, read-out: solubility in SGF): ≤ 150 µg/mL | solubility ([5]; pH 6.95, water, H2O, 37° C., read-out: solubility in H2O): 20 µg/mL (≈ 46.8 µM) | FC (Form change) ([5]; FaSSIF, 37° C., 1 hr): No | FC (Form change) ([5]; FaSSIF, 37° C., 4 hrs): No | FC (Form change) ([5]; FaSSIF, 37° C., 24 hrs): No | FC (Form change) ([5]; FeSSIF, 37° C., 1 hr): No | FC (Form change) ([5]; FeSSIF, 37° C., 4 hrs): No | FC (Form change) ([5]; FeSSIF, 37° C., 24 hrs): No | FC (Form change) ([5]; H2O, 37° C., 1 hr): No | FC (Form change) ([5]; H2O, 37° C., 4 hrs): No | FC (Form change) ([5]; H2O, 37° C., 24 hrs): No | FC (Form change) ([5]; SGF, 37° C., 1 hr): No | FC (Form change) ([5]; SGF, 37° C., 4 hrs): No | FC (Form change) ([5]; SGF, 37° C., 24 hrs): No | solubility at 1 h ([5]; simulated gastric fluid, SGF (pH 1.77), 37° C., 1 hr): 140 µg/mL (≈ 328 µM) | solubility at 4 h ([5]; simulated gastric fluid, SGF (pH 1.77), 37° C., 4 hrs): 150 µg/mL (≈ 351 µM) | solubility at 24 h ([5]; simulated gastric fluid, SGF (pH 1.77), 37° C., 24 hrs): 140 µg/mL (≈ 328 µM) | solubility at 1 h ([5]; FaSSIF (pH 6.47), 37° C., 1 hr): 30 µg/mL (≈ 70.2 µM) | solubility at 4 h ([5]; FaSSIF (pH 6.47), 37° C., 4 hrs): 30 µg/mL (≈ 70.2 µM) | solubility at 24 h ([5]; FaSSIF (pH 6.47), 37° C., 24 hrs): 30 µg/mL (≈ 70.2 µM) | solubility at 1 h ([5]; FeSSIF (pH 4.99), 37° C., 1 hr): 60 µg/mL (≈ 140 µM) | solubility at 4 h ([5]; FeSSIF (pH 4.99), 37° C., 4 hrs): 60 µg/mL (≈ 140 µM) | solubility at 24 h ([5]; FeSSIF (pH 4.99), 37° C., 24 hrs): 60 µg/mL (≈ 140 µM) | solubility at 1 h ([5]; water, H2O (pH 6.95), 37° C., 1 hr): 20 µg/mL (≈ 46.8 µM) | solubility at 4 h ([5]; water, H2O (pH 6.95), 37° C., 4 hrs): 20 µg/mL (≈ 46.8 µM) | solubility at 24 h ([5]; water, H2O (pH 6.95), 37° C., 24 hrs): 20 µg/mL (≈ 46.8 µM) | HPLC purity Of initial ([6]; 25° C./60% RH, 1 w): 100.00% | HPLC purity after storage ([6]; 25° C./60% RH, 1 w): 100.00 area % | form change after storage (XRPD) [6, 8]: no form change was observed | purity decrease after storage (HPLC) [6, 8]: no purity decrease was detected | HPLC purity Of initial ([6]; 40° C./75% RH, 1 w): 100.00% | HPLC purity after storage ([6]; 40° C./75% RH, 1 w): 100.00 area % | HPLC purity Of initial ([6]; 60° C./sealed, 24 hrs): 100.00% | HPLC purity after storage ([6]; 60° C./sealed, 24 hrs): 100.00 area % | Form change ([6]; 25° C./60% RH, 1 w): No | Form change ([6]; 40° C./75% RH, 1 w): No | Form change ([6]; 60° C./sealed, 24 hrs): No | water uptake ([7]; 80% RH/25° C., sorption cycle from 0% RH to 95% RH): 0.01% | hygroscopicity ([7]; DVS test): non-hygroscopic | form change after the DVS test ([7]; XRPD): no form change was observed
